Experimental findings from patent US20220332726A1, “NITROXIDE DERIVATIVE OF ROCK KINASE INHIBITOR” (VIVAVISION (SHANGHAI) LTD, priority 2020, published 2022) are described below.

In general, IC50 refers to the concentration that gives 50% inhibition.

In the experiment the target is ROCK2 (Homo sapiens, UniProt O75116). The experiment can be described thus: ROCK2 kinase inhibitor activity test (HTRF). It counts as biochemical. The conditions noted are these: ROCK2 1 nM, substrate 500 nM, ATP 6 uM, 1.5 hours at room temperature, read-out: ROCK2 kinase inhibitor activities (IC50). The procedure: ROCK2 Kinase Inhibitor Activity Test
ROCK2, sequence (O75116 whole entry): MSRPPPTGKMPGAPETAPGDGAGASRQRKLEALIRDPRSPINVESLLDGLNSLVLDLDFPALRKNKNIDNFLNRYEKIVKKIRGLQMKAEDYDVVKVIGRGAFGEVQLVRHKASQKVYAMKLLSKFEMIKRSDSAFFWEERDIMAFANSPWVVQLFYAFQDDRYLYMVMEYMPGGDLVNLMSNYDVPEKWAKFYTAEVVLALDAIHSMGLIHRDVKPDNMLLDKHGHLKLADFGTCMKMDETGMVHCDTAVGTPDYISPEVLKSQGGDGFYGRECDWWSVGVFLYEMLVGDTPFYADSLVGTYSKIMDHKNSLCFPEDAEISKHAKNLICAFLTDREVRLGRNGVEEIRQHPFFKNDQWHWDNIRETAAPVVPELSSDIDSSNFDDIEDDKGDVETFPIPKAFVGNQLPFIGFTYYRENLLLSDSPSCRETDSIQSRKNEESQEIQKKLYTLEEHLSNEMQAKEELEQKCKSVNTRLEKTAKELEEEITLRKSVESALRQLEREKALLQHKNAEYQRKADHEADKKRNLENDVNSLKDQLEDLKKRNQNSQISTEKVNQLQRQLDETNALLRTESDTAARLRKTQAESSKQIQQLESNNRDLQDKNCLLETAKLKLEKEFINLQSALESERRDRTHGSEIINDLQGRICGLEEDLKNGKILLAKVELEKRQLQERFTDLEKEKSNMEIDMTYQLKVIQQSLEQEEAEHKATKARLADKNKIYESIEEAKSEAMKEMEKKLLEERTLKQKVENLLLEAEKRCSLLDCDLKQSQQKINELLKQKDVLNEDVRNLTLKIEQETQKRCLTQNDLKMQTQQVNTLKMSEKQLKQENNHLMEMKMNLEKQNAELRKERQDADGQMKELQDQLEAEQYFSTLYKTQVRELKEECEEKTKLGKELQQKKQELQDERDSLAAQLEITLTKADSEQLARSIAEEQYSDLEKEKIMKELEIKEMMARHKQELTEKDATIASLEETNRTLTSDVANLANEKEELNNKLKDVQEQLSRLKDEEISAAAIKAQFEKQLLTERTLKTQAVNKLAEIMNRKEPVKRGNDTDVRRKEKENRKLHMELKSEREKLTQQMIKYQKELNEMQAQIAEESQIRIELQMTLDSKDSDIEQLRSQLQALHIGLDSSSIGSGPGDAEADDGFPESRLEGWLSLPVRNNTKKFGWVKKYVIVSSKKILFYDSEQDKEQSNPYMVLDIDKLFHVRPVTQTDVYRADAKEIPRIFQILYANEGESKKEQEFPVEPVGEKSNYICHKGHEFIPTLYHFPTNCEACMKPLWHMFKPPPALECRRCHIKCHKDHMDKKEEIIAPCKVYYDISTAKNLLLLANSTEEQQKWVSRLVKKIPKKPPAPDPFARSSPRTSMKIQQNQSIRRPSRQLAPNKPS
1) 4× ROCK2 reaction solution, 4×ATP reaction solution, 4× substrate solution, and 4× compound solution were prepared according to experimental requirements.
2) 2.5 μL of 4× kinase solution and 2.5 μL of diluted 4× test compound solutions with different concentration gradients were added to a 384-well plate. 2 replicate wells were provided for each concentration, and an enzyme solution blank control group and a negative control group (DMSO group) were provided at the same time. Centrifugation was performed at 1000 rpm for 1 minute, and the enzyme and the compounds were mixed. 2.5 μL of 4× substrate solution was added to the 384-well plate, centrifugation was performed at 1000 rpm for 1 minute, 2.5 μL of 4× ATP solution was added to the 384-well plate, centrifugation was performed at 1000 rpm for 1 minute to start the enzyme reaction, and incubation was performed at room temperature for 1.5 hours.
The final concentration of each component of the ROCK2 reaction was: ROCK2: 1 nM, substrate: 500 nM, ATP: 6 uM, and the final concentration range of the test compounds was: 100 nM to 5 pM.
3) 4× Streptavidin-XL-665 detection solution was prepared according to experimental requirements.
4) After the enzyme reaction was completed, 5 ul of 4× Streptavidin-XL-665 detection solution was added to each well of the 384-well plate, and centrifugation was performed at 1000 rpm for 1 minute. 5 μL of 4×STK Antibody-cryptate detection antibody solution was added to each well of the 384-well plate, centrifugation was performed at 1000 rpm for 1 minute, and incubation was performed for 1 hour at room temperature.
5) After antibody incubation was completed, the signal value of each well was measured by the HTRF program on an Envision plate reader.
1) Taking the enzyme solution blank control group as 100% inhibition rate and the negative control group (DMSO group) as 0% inhibition rate, the percentage inhibition rate corresponding to each concentration of the test compound was calculated.
2) In the GraphPad Prism software, a nonlinear regression analysis was performed on the logarithm of the concentrations of the test compounds and the corresponding percentage inhibition rates to obtain the half-inhibitory concentrations (IC50) of the test compounds.
The ROCK2 kinase inhibitor activities (IC50) of the compounds detected by this method are as follows: […]
On the technique in general: In TR-FRET formats the signal depends on donor and acceptor labels being close together.
“4-((S)-3-amino-1-oxy-1-(thieno[2,3-c]pyridin-2-ylamino)prop-2-yl)benzyl(1s,4R)-4-((nitrooxy)methyl)cyclohexane-1-carboxylic acid [Example 27]”: the IC50 amounted to 4.62 nM.
In the case of `NCC(C(=O)Nc1ccc2cnccc2c1)c1ccc(CO[N+](=O)[O-])cc1` (centres unmarked) [Example 2, (3-amino-1-(isoquinolin-6-ylamino)-1-oxoprop-2-yl)benzyl nitrate] it was 5.59 nM; in that of `NCC(C(=O)Nc1cc2ccncc2s1)c1ccc(CCO[N+](=O)[O-])cc1` (centres unmarked) [Example 3], 10.8 nM; in that of `NC[C@@H](C(=O)Nc1ccc2cnsc2c1)c1ccc(CO[N+](=O)[O-])cc1` [Example 4, (S)-4-(3-amino-1-(benzo[d]isothiazol-6-ylamino)-1-oxoprop-2-yl)benzyl nitrate], 1.78 nM.
On to `NCC(C(=O)Nc1cc2ccncc2s1)c1ccc(C(CO[N+](=O)[O-])O[N+](=O)[O-])cc1` (centres unmarked) [Example 5, 1-(4-(3-amino-1-oxo-1-(thieno[2,3-c]pyridin-2-ylamino)prop-2-yl)phenyl)ethane-1,2-dinitrate], for which the IC50 turned out to be 19.2 nM.
Consider `NC[C@@H](C(=O)Nc1cc2ccncc2s1)c1ccc(COC(=O)C2CC(O[N+](=O)[O-])C2)cc1` (some centres unmarked) [Example 6], for which the IC50 came to 1.3 nM.
Consider `NCC(C(=O)Nc1cc2ccncc2s1)c1ccc(CCCCO[N+](=O)[O-])cc1` (centres unmarked) [Example 10, 4-(4-(3-amino-1-oxo-1-(thieno[2,3-c]pyridin-2-ylamino)prop-2-yl)phenyl)butyl nitrate], for which the IC50 amounted to 19.3 nM.
On to `NC[C@@H](C(=O)Nc1cc2c(F)cncc2s1)c1ccc(CO[N+](=O)[O-])cc1` [Example 12, (S)-4-(3-amino-1-((4-fluorothieno[2,3-c]pyridin-2-yl)amino)-1-oxoprop-2-yl)benzyl nitrate], for which the IC50 amounted to 2.95 nM.
Regarding `NCC(C(=O)Nc1cc2ccncc2s1)c1ccc(OC(CO[N+](=O)[O-])CO[N+](=O)[O-])cc1` (centres unmarked) [Example 14, 2-(4-(3-amino-1-oxo-1-(thieno[2,3-c]pyridin-2-ylamino)propan-2-yl)phenoxy)propane-1,3-dinitrate], the IC50 turned out to be 77.3 nM.
As for `NC[C@@H](C(=O)Nc1cc2ccncc2s1)c1ccc(COC(=O)C2CCC(O[N+](=O)[O-])CC2)cc1` (stereo partly drawn) [Example 15, (S)-4-(3-amino-1-oxy-1-(thieno[2,3-c]pyridin-2-ylamino)prop-2-yl)benzyl 4-(nitrooxy)cyclohexane-1-carboxylic acid], the IC50 came out at 1.63 nM.
Take `NC[C@@H](C(=O)Nc1cc2ccncc2s1)c1ccc(COC(=O)c2ccc(CCO[N+](=O)[O-])cc2)cc1` [Example 16, (S)-4-(3-amino-1-oxy-1-(thieno[2,3-c]pyridin-2-ylamino)prop-2-yl)benzyl 4-(2-(nitrooxy)ethyl)benzoate]: the IC50 was 1.86 nM.
As for `Cc1cc(CCO[N+](=O)[O-])ccc1C(=O)OCc1ccc([C@@H](CN)C(=O)Nc2cc3ccncc3s2)cc1` [Example 17], the IC50 was 5.44 nM.
In the case of `Cc1ccc(CCO[N+](=O)[O-])cc1C(=O)OCc1ccc([C@@H](CN)C(=O)Nc2cc3ccncc3s2)cc1` [Example 18] it was 4.62 nM; in that of `NC[C@@H](C(=O)Nc1cc2ccncc2s1)c1ccc(COC(=O)[C@H]2CC[C@@H](O[N+](=O)[O-])CC2)cc1` [Example 19, 4-((S)-3-amino-1-oxy-1-(thieno[2,3-c]pyridin-2-ylamino)prop-2-yl)benzyl(1s,4R)-4-(nitrooxy)cyclohexane-1-carboxylate], 1.33 nM.
`NC[C@@H](C(=O)Nc1cc2ccncc2s1)c1ccc(COC(=O)[C@H]2CC[C@H](O[N+](=O)[O-])CC2)cc1` [Example 20, 4-((S)-3-amino-1-oxy-1-(thieno[2,3-c]pyridin-2-ylamino)prop-2-yl)benzyl(1r,4S)-4-(nitrooxy)cyclohexane-1-carboxylate]: the IC50 is 1.43 nM.
As to `NC[C@@H](C(=O)Nc1cc2ccncc2s1)c1ccc(COC(=O)c2cccc(CO[N+](=O)[O-])c2)cc1` [Example 21, (S)-4-(3-amino-1-oxo-1-(thieno[2,3-c]pyridin-2-ylamino)prop-2-yl)benzyl 3-((nitrooxy)methyl)benzoate], the IC50 stood at 1.23 nM.
Turning to `NC[C@@H](C(=O)Nc1cc2ccncc2s1)c1ccc(COC(=O)c2ccc(CO[N+](=O)[O-])cc2)cc1` [Example 22, (S)-4-(3-amino-1-oxo-1-(thieno[2,3-c]pyridin-2-ylamino)prop-2-yl)benzyl 4-((nitrooxy)methyl)benzoate], the IC50 was found to be 1.6 nM.
With `NC[C@@H](C(=O)Nc1cc2ccncc2s1)c1ccc(COC(=O)C2CC(CO[N+](=O)[O-])C2)cc1` (stereo partly drawn) [Example 23, (S)-4-(3-amino-1-oxy-1-(thieno[2,3-c]pyridin-2-ylamino)propan-2-yl)benzyl 3-((nitrooxy)methyl)cyclobutane-1-carboxylate], the IC50 stood at 1.13 nM.
As for `NC[C@@H](C(=O)Nc1cc2ccncc2s1)c1ccc(COC(=O)NCCO[N+](=O)[O-])cc1` [Example 24, (S)-4-(3-amino-1-oxy-1-(thieno[2,3-c]pyridin-2-ylamino)prop-2-yl)benzyl(2-(nitrooxy)ethyl)carbamate], the IC50 is 0.45 nM.
Take `NC[C@@H](C(=O)Nc1cc2ccncc2s1)c1ccc(COC(=O)[C@H]2C[C@H](O[N+](=O)[O-])C2)cc1` [Example 25, 4-((S)-3-amino-1-oxo-1-(thieno[2,3-c]pyridin-2-ylamino)propan-2-yl)benzyl (1r,3S)-3-(nitrooxy)cyclobutane-1-carboxylate]: the IC50 stood at 1.78 nM.
Regarding `CC(CO[N+](=O)[O-])(CO[N+](=O)[O-])C(=O)OCc1ccc([C@@H](CN)C(=O)Nc2cc3ccncc3s2)cc1` [Example 26, (S)-4-(3-amino-1-oxo-1-(thieno[2,3-c]pyridin-2-ylamino)prop-2-yl)benzyl 2-methyl-3-(nitrooxy)-2-((nitrooxy)methyl)propionate], the IC50 amounted to 9.9 nM.
In the case of `NC[C@@H](C(=O)Nc1cc2ccncc2s1)c1ccc(COC(=O)c2cccc(CCO[N+](=O)[O-])c2)cc1` [Example 28, (S)-4-(3-amino-1-oxy-1-(thieno[2,3-c]pyridin-2-ylamino)prop-2-yl)benzyl 3-(2-(nitrooxy)ethyl)benzoate] it was 1.32 nM; in that of `NC[C@@H](C(=O)Nc1cc2ccncc2s1)c1ccc(COC(=O)CC2(CO[N+](=O)[O-])CC2)cc1` [Example 29, (S)-4-(3-amino-1-oxy-1-(thieno[2,3-c]pyridin-2-ylamino)prop-2-yl)benzyl 2-(1-((nitrooxy)methyl)cyclopropyl acetate], 2.74 nM.
Take `CC(C)(CCCO[N+](=O)[O-])C(=O)OCc1ccc([C@@H](CN)C(=O)Nc2cc3ccncc3s2)cc1` [Example 30, (S)-4-(3-amino-1-oxy-1-(thieno[2,3-c]pyridin-2-ylamino)prop-2-yl)benzyl 2,2-dimethyl-5-(nitrooxy)valerate]: the IC50 came to 16.5 nM.
Turning to `NC[C@@H](C(=O)Nc1cc2ccncc2s1)c1ccc(COC(=O)CCCCCO[N+](=O)[O-])cc1` [Example 31, (S)-4-(3-amino-1-oxy-1-(thieno[2,3-c]pyridin-2-ylamino)propan-2-yl)benzyl 6-(nitrooxy)hexanoate], the IC50 is 1.58 nM.
As for `NC[C@@H](C(=O)Nc1cc2ccncc2s1)c1ccc(COC(=O)C2(CO[N+](=O)[O-])CC2)cc1` [Example 32, (S)-4-(3-amino-1-oxy-1-(thieno[2,3-c]pyridin-2-ylamino)propan-2-yl)benzyl 1-((nitrooxy)methyl)cyclopropane carboxylate], the IC50 came to 3.11 nM.
`NC[C@@H](C(=O)Nc1cc2cnccc2s1)c1ccc(COC(=O)CC[C@H](CO[N+](=O)[O-])O[N+](=O)[O-])cc1` [Example 33, 4-((S)-3-amino-1-oxy-1-(thieno[2,3-c]pyridin-2-ylamino)prop-2-yl)benzyl(R)-4,5-bis(nitrooxy)valeric acid]: the IC50 was 1.18 nM.
Turning to `NC[C@@H](C(=O)Nc1cc2ccncc2s1)c1ccc(COC(=O)[C@H]2C[C@@H](CO[N+](=O)[O-])C2)cc1` [Example 34, (1S,3R)-4-((S)-3-amino-1-oxy-1-(thieno[2,3-c]pyridin-2-ylamino)propan-2-yl)benzyl 3-((nitrooxy)methyl)cyclobutane-1-carboxylate], the IC50 was determined as 1.04 nM.
For `NC[C@@H](C(=O)Nc1cc2ccncc2s1)c1ccc(COC(=O)[C@H]2C[C@H](CO[N+](=O)[O-])C2)cc1` [Example 35, (1R,3S)-4-((S)-3-amino-1-oxy-1-(thieno[2,3-c]pyridin-2-ylamino)propan-2-yl)benzyl 3-((nitrooxy)methyl)cyclobutane-1-carboxylate], the IC50 was found to be 6.5 nM.
